25 compounds from US9776965B2, “Pyrrolidin-2-one and piperidin-2-one derivatives as 11-beta hydroxysteroid dehydrogenase inhibitors” (Janssen Pharmaceutica N.V., priority 2004, dated 2017) can be followed below.

Data set [1] has as its target T1, 11b-HSD1 (Mus musculus, UniProt P50172).
T1 construct: Fibroblasts were differentiated into adipocytes; endogenous in cells; host or cells: differentiated 3T3-L1 cells (ATCC-CL-173)
The data set is described as follows: Cellular assay, 11b-HSD1 activity in differentiated 3T3-L1 cells. In kind it is cell-based. As to conditions: 4 hour pre-incubation; for IC50: read-out: [C2] HSD1 cellular 3T3-L1 Score. The method, boiled down: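 Differentiated mouse 3T3-L1 adipocytes pre-incubated 4 hours with compound (final 3.10^−9 to 10^−5 M), then 0.5 μCi ³H-cortisone or dehydrocorticosterone added for one hour. Medium extracted with diethyl ether and steroids resolved by HPLC; pIC50 from dose-response curves, reported as scores.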

Data set [2] addresses T2, 11b-HSD2 (Homo sapiens, UniProt P80365).
T2 sequence (P80365 1-405): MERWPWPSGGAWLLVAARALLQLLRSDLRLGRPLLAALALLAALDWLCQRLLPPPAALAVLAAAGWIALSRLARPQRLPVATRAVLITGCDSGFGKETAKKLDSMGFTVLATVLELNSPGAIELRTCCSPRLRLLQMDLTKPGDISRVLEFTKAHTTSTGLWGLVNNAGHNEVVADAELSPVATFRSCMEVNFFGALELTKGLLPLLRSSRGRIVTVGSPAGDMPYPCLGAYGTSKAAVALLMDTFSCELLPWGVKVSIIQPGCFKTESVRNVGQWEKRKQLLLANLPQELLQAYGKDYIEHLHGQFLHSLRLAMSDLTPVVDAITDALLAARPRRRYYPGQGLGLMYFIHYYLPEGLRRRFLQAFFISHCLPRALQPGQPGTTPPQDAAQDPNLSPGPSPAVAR
The data set is described as follows: Cellular assay, 11b-HSD2 activity in HepG2 cells. On the set-up: endogenous in cells; host or cells: HepG2 (ATCC HB-8065). In kind it is cell-based. Particulars: 4 hour pre-incubation; for IC50: read-out: [C2] HSD2 cellular HepG2 Score. As to the method:
The effects on 11b-HSD2 activity was studied in HepG2 and LCC-PK1-cells HepG2-cells (ATCC HB-8065) were seeded in 12 well plates at a density of 100,000 cells/ml and grown at 37 C in a humidified 5% CO2 atmosphere in MEM-Rega-3 medium supplemented with 10% heat inactivated foetal calf serum, 2 mM L-glutamine and sodium bicarbonate). Medium was refreshed twice a week.
Following a 4 hour pre-incubation with test compound, 0.5 μCi ^3H-cortisol or corticosterone, was added to the cultures. One hour later, the medium was extracted on Extrelut^3-columns with 15 ml diethyl ether and the extract was analysed by HPLC as described above.
As for the enzymatic assays, the compounds to be tested were taken from a stock solution and tested at a final concentration ranging from […] to 3.10^−9M. From the thus obtained dose response curves, the pIC50 value was calculated and scored as follows; Score 1=pIC50 value<5, Score 2=pIC50 value in the range of 5 to 6, Score 3=pIC50 value>6. Some of the thus obtained results are summarized in the table below (in this table NT stands for Not Tested).

Data set [3] has as its target 11b-HSD1 (Homo sapiens, UniProt P28845). The data set is described as follows: Enzymatic assay, 11b-HSD1 dependent conversion of cortisone into cortisol (reductase activity). Particulars: recombinant protein, 2 μM cortisone, 45 min at 37 C; for IC50: read-out: [C1] HSD1-prot Reduct Score. The format is biochemical. The method, boiled down:
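Recombinant human 11b-HSD1 (11 µg) with 2 µM cortisone and 180 µM NADPH in 30 mM Tris-HCl pH 7.2, 1 mM EDTA, incubated 45 min at 37 °C. Cortisol formation was measured by HPLC with a corticosterone internal standard. Compounds were tested from 10^−5 M to 3.10^−9 M, and pIC50 was scored as 1 (<5), 2 (5–6) or 3 (>6).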

For data set [4], the target named is T2, 11b-HSD2. The data set is described as follows: Enzymatic assay, 11b-HSD2 dependent dehydrogenase activity. In kind it is biochemical. Particulars: recombinant protein, 100 nM cortisol, 45 min at 37 C; read-out: [C1] HSD2 prot Dehydro Score. As to the method: The effects on the 11b-HSD2 dependent dehydrogenase activity was studied in a reaction mixture containing 0.1M sodium phosphate buffer pH 7.5, 300 μM NAD, 100 nM cortisol (of which 2 nM is 3H-radio labelled), 1 μl drug and/or solvent and 2.5 μg recombinant protein in a final volume of 100 μl.
All incubations were performed for 45 min at 37 C in a water bath. The reaction was stopped by adding 100 μl acetonitrile containing 20 μg corticosterone as internal standard. After centrifugation, the product formation was analysed in the supernatant by HPLC on a Hypersyl BDS-C18 column using 0.05 mM ammonium acetate/methanol (50/50) as solvent. In all of the aforementioned assays, the drugs to be tested were taken from a stock solution and tested at a final concentration ranging from […] to 3.10^−9M. From the thus obtained dose response curves, the pIC50 value was calculated and scored as follows; Score 1=pIC50 value<5, Score 2=pIC50 value in the range of 5 to 6, Score 3=pIC50 value>6. (in this table NT stands for Not Tested).

T1 sequence (P50172 whole entry): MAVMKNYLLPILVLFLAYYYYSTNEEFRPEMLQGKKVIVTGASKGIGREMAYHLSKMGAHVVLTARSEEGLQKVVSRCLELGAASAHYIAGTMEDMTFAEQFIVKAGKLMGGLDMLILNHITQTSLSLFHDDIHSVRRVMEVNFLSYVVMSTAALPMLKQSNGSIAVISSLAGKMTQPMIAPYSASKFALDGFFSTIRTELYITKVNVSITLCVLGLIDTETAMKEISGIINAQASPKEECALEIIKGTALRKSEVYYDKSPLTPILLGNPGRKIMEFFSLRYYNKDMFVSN
Chain of 11b-HSD1 (Homo sapiens, UniProt P28845) (P28845 whole entry): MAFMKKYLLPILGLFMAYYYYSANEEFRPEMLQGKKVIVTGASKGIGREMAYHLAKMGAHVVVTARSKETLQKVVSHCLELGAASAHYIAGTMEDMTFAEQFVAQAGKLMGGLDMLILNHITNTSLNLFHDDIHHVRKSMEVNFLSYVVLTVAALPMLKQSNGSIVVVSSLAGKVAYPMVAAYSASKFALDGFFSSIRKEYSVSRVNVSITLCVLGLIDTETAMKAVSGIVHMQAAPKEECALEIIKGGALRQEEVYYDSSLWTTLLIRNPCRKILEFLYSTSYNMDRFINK

With `C[C@@H](c1ccccc1)N1CC[C@H](Cc2ccccc2Cl)C1=O` [Compound 9], the IC50 at 11b-HSD1 [1] is less than 1 µM; on 11b-HSD2 [2] it was greater than 10 µM; at 11b-HSD1 [3] it was 1 to 10 µM; on 11b-HSD2 [4] it was greater than 10 µM.
In the case of `C[C@@H](c1ccccc1)N1CC[C@H](Cc2c(Cl)cccc2Cl)C1=O` [Compound 13], the IC50 at 11b-HSD1 [1] was less than 1 µM; at 11b-HSD2 [2], greater than 10 µM; at 11b-HSD1 [3], less than 1 µM; at 11b-HSD2 [4] it was greater than 10 µM.
As to `Cc1ccccc1CC1CCN(CCc2ccccc2)C1=O` (stereo not shown) [Compound 28], the IC50 at 11b-HSD1 [1] is less than 1 µM; on 11b-HSD2 [2], greater than 10 µM; at 11b-HSD1 [3], greater than 10 µM; at 11b-HSD2 [4], greater than 10 µM.
With `O=C1C(Cc2c(Cl)cccc2Cl)CCN1Cc1ccccc1` (stereo not shown) [Compound 59], the IC50 at 11b-HSD1 [1] is less than 1 µM; at 11b-HSD2 [2], greater than 10 µM; at 11b-HSD1 [3], 1 to 10 µM; at 11b-HSD2 [4], greater than 10 µM.
In the case of `COc1ccc(C[C@H]2CCN([C@H](C)c3ccccc3)C2=O)cc1` [Compound 65], the IC50 on 11b-HSD1 [1] is less than 1 µM; on 11b-HSD2 [2], greater than 10 µM; at 11b-HSD1 [3] it was greater than 10 µM; on 11b-HSD2 [4], greater than 10 µM.
Consider `CC[C@H](c1ccccc1)N1CC[C@@H](Cc2c(Cl)cccc2Cl)C1=O` [Compound 97], for which the IC50 was greater than 10 µM on 11b-HSD1 [1], greater than 10 µM on 11b-HSD2 [2], less than 1 µM on 11b-HSD1 [3] and 1 to 10 µM on 11b-HSD2 [4].
Take `Cc1ccccc1C(C)[C@H]1CCN([C@@H](C)c2ccccc2)C1=O` (stereo partly shown) [Compound 163]: the IC50 on 11b-HSD1 [1] is less than 1 µM; on 11b-HSD2 [2], greater than 10 µM; at 11b-HSD1 [3], less than 1 µM; at 11b-HSD2 [4], 1 to 10 µM.
For the compound `Cc1ccc(C[C@@H]2CCN([C@H](C)c3ccccc3)C2=O)cc1` [Compound 27], the IC50 on 11b-HSD1 [1] is less than 1 µM; on 11b-HSD2 [2], greater than 10 µM; at 11b-HSD1 [3], greater than 10 µM; on 11b-HSD2 [4], greater than 10 µM.
As to `O=C1C(Cc2cccc(Cl)c2Cl)CCN1CCc1ccccc1` (stereo not shown) [Compound 31], the IC50 on 11b-HSD1 [1] was less than 1 µM; on 11b-HSD2 [2] it was greater than 10 µM; at 11b-HSD1 [3] it was 1 to 10 µM; at 11b-HSD2 [4], greater than 10 µM.
As to `O=C1C(Cc2c(Cl)cccc2Cl)CCN1CCc1ccccc1` (stereo not shown) [Compound 32], the IC50 at 11b-HSD1 [1] is less than 1 µM; at 11b-HSD2 [2], greater than 10 µM; at 11b-HSD1 [3] it was less than 1 µM; on 11b-HSD2 [4] it was greater than 10 µM.
Take `Cc1ccccc1C[C@@H]1CCN([C@@H](C)c2ccccc2)C1=O` [Compound 1]: the IC50 at 11b-HSD1 [1] is less than 1 µM; at 11b-HSD2 [2], greater than 10 µM; at 11b-HSD1 [3], less than 1 µM; at 11b-HSD2 [4], greater than 10 µM.
As to `C[C@H](c1ccccc1)N1CC[C@H](Cc2ccccc2Cl)C1=O` [Compound 41], the IC50 is less than 1 µM on 11b-HSD1 [1], greater than 10 µM on 11b-HSD2 [2], 1 to 10 µM at 11b-HSD1 [3] and greater than 10 µM on 11b-HSD2 [4].
Consider `C[C@@H](c1ccccc1)N1CC[C@@H](Cc2c(Cl)cccc2Cl)C1=O` [Compound 14], for which the melting point (in general, the temperature of the solid-liquid transition) fell in the range of 75 to 76 °C. Also, the IC50 at 11b-HSD1 [1] was less than 1 µM. The IC50 on 11b-HSD2 [2] was greater than 10 µM. Further, the IC50 on 11b-HSD1 [3] was less than 1 µM. For the same compound, the IC50 on 11b-HSD2 [4] was greater than 10 µM.
For the compound `COc1ccc(C[C@@H]2CCN([C@@H](C)c3ccccc3)C2=O)c(Cl)c1OC` [Compound 119], the IC50 on 11b-HSD1 [1] was less than 1 µM; at 11b-HSD2 [2], greater than 10 µM; on 11b-HSD1 [3] it was less than 1 µM; at 11b-HSD2 [4] it was 1 to 10 µM.
Consider `C[C@H](c1ccccc1)N1CC[C@H](Cc2c(Cl)cccc2Cl)C1=O` [Compound 45], for which the IC50 is less than 1 µM on 11b-HSD1 [1], greater than 10 µM at 11b-HSD2 [2], less than 1 µM at 11b-HSD1 [3] and greater than 10 µM on 11b-HSD2 [4].
`C[C@@H](c1ccccc1)N1CC[C@@H](Cc2ccccc2Cl)C1=O` [Compound 10]: the IC50 is less than 1 µM on 11b-HSD1 [1], greater than 10 µM on 11b-HSD2 [2], less than 1 µM at 11b-HSD1 [3] and greater than 10 µM on 11b-HSD2 [4].
Take `COc1ccccc1C[C@H]1CCN([C@@H](C)c2ccccc2)C1=O` [Compound 7]: the IC50 is less than 1 µM at 11b-HSD1 [1], greater than 10 µM at 11b-HSD2 [2], 1 to 10 µM on 11b-HSD1 [3] and greater than 10 µM on 11b-HSD2 [4].
On to `Cc1ccc(CC2CCN(CCc3ccccc3)C2=O)cc1` (stereo not shown) [Compound 35], for which the IC50 on 11b-HSD1 [1] was less than 1 µM; at 11b-HSD2 [2] it was greater than 10 µM; on 11b-HSD1 [3], greater than 10 µM; on 11b-HSD2 [4], greater than 10 µM.
In the case of `Cc1ccccc1C[C@H]1CCN([C@@H](C)c2ccccc2)C1=O` [Compound 2], the results for the IC50 at 11b-HSD1 [1], on 11b-HSD2 [2] and at 11b-HSD1 [3] were 1 to 10 µM, greater than 10 µM and 1 to 10 µM, respectively.
With `O=C1C(Cc2ccccc2Cl)CCN1CCc1ccccc1` (stereo not shown) [Compound 30], the IC50 on 11b-HSD1 [1] is less than 1 µM; on 11b-HSD2 [2], greater than 10 µM; at 11b-HSD1 [3] it was less than 1 µM; on 11b-HSD2 [4] it was greater than 10 µM.
On to `Cc1cccc(C)c1C[C@H]1CCN([C@@H](C)c2ccccc2)C1=O` [Compound 77], for which the “[C2] HSD1 cellular 3T3-L1 Score” value at 11b-HSD1 [1] was 3 (Score 3=pIC50 value>6). For the same compound, the “[C2] HSD2 cellular HepG2 Score” value at 11b-HSD2 [2] is on record as 1 (Score 1=pIC50 value<5). In addition, at 11b-HSD1 [3], the “[C1] HSD1-prot Reduct Score” value is given as 3 (Score 3=pIC50 value>6).
As to `Cc1ccc([C@H](O)[C@@H]2CCN([C@@H](C)c3ccccc3)C2=O)c(C)c1` [Compound 69], the IC50 on 11b-HSD1 [1] is less than 1 µM; at 11b-HSD2 [2], greater than 10 µM; on 11b-HSD1 [3], 1 to 10 µM.
In the case of `O=C1C(Cc2ccccc2Cl)CCN1Cc1ccccc1` (stereo not shown) [Compound 57], the IC50 is less than 1 µM at 11b-HSD1 [1], greater than 10 µM at 11b-HSD2 [2], 1 to 10 µM on 11b-HSD1 [3] and greater than 10 µM on 11b-HSD2 [4].
As to `Cc1ccccc1C(C)[C@@H]1CCN([C@@H](C)c2ccccc2)C1=O` (stereo partly shown) [Compound 162], the IC50 on 11b-HSD1 [1] was less than 1 µM; on 11b-HSD2 [2] it was greater than 10 µM; at 11b-HSD1 [3], less than 1 µM; on 11b-HSD2 [4] it was 1 to 10 µM.
For the compound `Cc1cccc(C)c1C[C@H]1CCN([C@@H](C)c2ccccc2)C1=O` [Compound 148], the IC50 on 11b-HSD1 [1] is less than 1 µM; on 11b-HSD2 [2] it was greater than 10 µM; on 11b-HSD1 [3], greater than 10 µM.
